Values of other authors in patent publication US20250228771A1, “ALKALINE INTRAORAL PRODUCTS” (priority 2022, published 2025).

Settings: Tomar S. L. et al., Tobacco Control 1997

CN1CCCC1c1cccnc1 (stereo not shown) [nicotine]
lower pKa: about 3.2
